Measurements from patent US20130212744A1, “METHOD OF REDUCING INSECT-VECTORED VIRAL INFECTIONS” (priority 2010, published 2013).

Tested on: whitefly Bemisia tabaci adults
Experiment: Soil use (drench) field trial on tomato, efficacy on whitefly adults
Type: in vivo
Details: for Emax at 12.5 g/ha: 12.5 g ai/ha; for Emax at 25 g/ha: 25 g ai/ha; for Emax at 100 g/ha: 100 g ai/ha; for Emax at 150 g/ha: 150 g ai/ha
Protocol: Two soil applied studies were carried out in Elhasanya, Egypt in 2009 on tomato plants with the main goal to measure efficacy on the whitefly Bemisia tabaci. The plot size was 4.8 m^2 and 6 replicates were used in the trial. Products were applied once on young tomato plants at BBCH stage 14 as a drench. The spray volume was at the first application 350 l/ha. The evaluation of this study was done counting the adult whiteflies (Bemisia tabaci) as well as the nymphs and the eggs in each plot. In addition to the direct whitefly effect, visual symptoms of the virus, mainly TYLCV (tomato yellow leaf curl virus) were evaluated also.

Work on `CSC(=O)c1cccc2nnsc12` [ASM, S-methyl benzo[1,2,3]thiadiazole-7-carbothioate] yielded an Emax at 12.5 g/ha (120 h, 5DAA, Trial 1) of 40%, an Emax at 12.5 g/ha (120 h, 5DAA, Trial 2) of 29% and an Emax at 25 g/ha (120 h, 5DAA, Trial 1) of 50%. The Emax at 25 g/ha (120 h, 5DAA, Trial 2) was 36%, the Emax at 12.5 g/ha (240 h, 10DAA, Trial 1) was 41% and the Emax at 12.5 g/ha (240 h, 10DAA, Trial 2) was 34%. It also gave an Emax at 25 g/ha (240 h, 10DAA, Trial 1) of 44%, an Emax at 25 g/ha (240 h, 10DAA, Trial 2) of 45% and an Emax at 12.5 g/ha (360 h, 15DAA, Trial 1) of 58%. For the same compound, the Emax at 12.5 g/ha (360 h, 15DAA, Trial 2) was 35%, the Emax at 25 g/ha (360 h, 15DAA, Trial 1) was 64% and the Emax at 25 g/ha (360 h, 15DAA, Trial 2) was 45%. It also gave an Emax at 12.5 g/ha (480 h, 20DAA, Trial 1) of 39%, an Emax at 12.5 g/ha (480 h, 20DAA, Trial 2) of 31% and an Emax at 25 g/ha (480 h, 20DAA, Trial 1) of 42%. For the same compound, the Emax at 25 g/ha (480 h, 20DAA, Trial 2) was 43%, the Emax at 12.5 g/ha (600 h, 25DAA, Trial 1) was 29% and the Emax at 12.5 g/ha (600 h, 25DAA, Trial 2) was 25%. It also gave an Emax at 25 g/ha (600 h, 25DAA, Trial 1) of 31%, an Emax at 25 g/ha (600 h, 25DAA, Trial 2) of 35% and an Emax at 12.5 g/ha (720 h, 30DAA, Trial 1) of 22%. The Emax at 12.5 g/ha (720 h, 30DAA, Trial 2) was 19%, the Emax at 25 g/ha (720 h, 30DAA, Trial 1) was 26% and the Emax at 25 g/ha (720 h, 30DAA, Trial 2) was 30%. The Emax at 12.5 g/ha (840 h, 35DAA, Trial 1) was 14%, the Emax at 12.5 g/ha (840 h, 35DAA, Trial 2) was 12% and the Emax at 25 g/ha (840 h, 35DAA, Trial 1) was 26%. For the same compound, the Emax at 25 g/ha (840 h, 35DAA, Trial 2) was 23%, the Emax at 12.5 g/ha (960 h, 40DAA, Trial 1) was 5% and the Emax at 12.5 g/ha (960 h, 40DAA, Trial 2) was 9%. For the same compound, the Emax at 25 g/ha (960 h, 40DAA, Trial 1) was 5% and the Emax at 25 g/ha (960 h, 40DAA, Trial 2) was 10%.

Compound `CNC(=O)c1cc(C#N)cc(C)c1NC(=O)c1cc(Br)nn1-c1ncccc1Cl` [CYNT, 3-bromo-1-(3-chloro-2-pyridyl)-4′-cyano-2′-methyl-6′-(methylcarbamoyl)pyrazole-5-carboxanilide] has an Emax at 100 g/ha (120 h, 5DAA, Trial 1) of 79%, an Emax at 100 g/ha (120 h, 5DAA, Trial 2) of 70% and an Emax at 150 g/ha (120 h, 5DAA, Trial 1) of 83%. The Emax at 150 g/ha (120 h, 5DAA, Trial 2) was 76%, the Emax at 100 g/ha (240 h, 10DAA, Trial 1) was 75% and the Emax at 100 g/ha (240 h, 10DAA, Trial 2) was 71%. It also gave an Emax at 150 g/ha (240 h, 10DAA, Trial 1) of 75%, an Emax at 150 g/ha (240 h, 10DAA, Trial 2) of 80% and an Emax at 100 g/ha (360 h, 15DAA, Trial 1) of 78%. For the same compound, the Emax at 100 g/ha (360 h, 15DAA, Trial 2) was 76%, the Emax at 150 g/ha (360 h, 15DAA, Trial 1) was 79% and the Emax at 150 g/ha (360 h, 15DAA, Trial 2) was 83%. It also gave an Emax at 100 g/ha (480 h, 20DAA, Trial 1) of 72%, an Emax at 100 g/ha (480 h, 20DAA, Trial 2) of 74% and an Emax at 150 g/ha (480 h, 20DAA, Trial 1) of 74%. The Emax at 150 g/ha (480 h, 20DAA, Trial 2) was 82%, the Emax at 100 g/ha (600 h, 25DAA, Trial 1) was 66% and the Emax at 100 g/ha (600 h, 25DAA, Trial 2) was 72%. The Emax at 150 g/ha (600 h, 25DAA, Trial 1) was 69%, the Emax at 150 g/ha (600 h, 25DAA, Trial 2) was 80% and the Emax at 100 g/ha (720 h, 30DAA, Trial 1) was 61%. For the same compound, the Emax at 100 g/ha (720 h, 30DAA, Trial 2) was 65%, the Emax at 150 g/ha (720 h, 30DAA, Trial 1) was 67% and the Emax at 150 g/ha (720 h, 30DAA, Trial 2) was 71%. It also gave an Emax at 100 g/ha (840 h, 35DAA, Trial 1) of 53%, an Emax at 100 g/ha (840 h, 35DAA, Trial 2) of 57% and an Emax at 150 g/ha (840 h, 35DAA, Trial 1) of 59%. The Emax at 150 g/ha (840 h, 35DAA, Trial 2) was 62%, the Emax at 100 g/ha (960 h, 40DAA, Trial 1) was 39% and the Emax at 100 g/ha (960 h, 40DAA, Trial 2) was 43%. The Emax at 150 g/ha (960 h, 40DAA, Trial 1) was 45% and the Emax at 150 g/ha (960 h, 40DAA, Trial 2) was 45%.
